Experimental data published in article PMC7506137, “Selective Phosphodiesterase 1 Inhibitor BTTQ Reduces Blood Pressure in Spontaneously Hypertensive and Dahl Salt Sensitive Rats: Role of Peripheral Vasodilation” (Frontiers in Physiology, 2020).
“And” between values parts separate entries of the source, which are not always exact repeats. Equal values may be shown once. Read-outs that look alike come from different tables or passages of the source.

Assay: Plasma exposure (dried blood spot) after single oral dose
Type: in vivo
Details: rat; for concentration at 5 h / concentration at 6 h / concentration at 24 h: Sprague Dawley, po, 3 mg/kg, oral 3 mg/kg; for concentration at 24 h / Unbound Concentration, individual animals / Concentration, individual animals: 24 h
Method: Male Sprague Dawley rats at 6 to 7 weeks were dosed orally by p.o. gavage with different doses of BTTQ formulated in 1% hydroxyethlycellulose (Dow Corning, Midland, MI, United States) (w/v), 0.25% polysorbate 80 (Sigma-Aldrich, St. Louis, MO, United States) (v/v), and 0.05% antifoam (v/v; Dow Corning, Midland, MI, United States) in purified water. Following dosing, ear temperature was measured by using a k-type thermocouple probe digital thermometer (Cole Parmer) every hour for 6 h and then at 24 h. Blood samples for plasma exposure measurement were obtained at the same time. Blood was collected via a tail snip directly into a 20-μL EDTA-coated capillary and immediately spotted onto a Whatman DMPK-C DBS card (GE Healthcare Bio-Sciences). Tail snips were performed by removing approximately 1 mm of the tail by using a scalpel. Blood flow was initiated by gentle squeezing of the tail. No analgesia or anesthesia was used during blood collections. A single sample and spot were collected per time point. The DBS cards were allowed to dry for approximately 2 h at room temperature, after which the cards were placed in a zip-top bag, stored, and shipped at ambient temperature.

**Q.** Which results are given for `O=c1c2nnc(C3(C4CC4)CC3)n2c2c(n1CC1CC1)CCCC2` [BTTQ, 1-[1,1′-bi(cyclopropyl)-1-yl]-5-(cyclopropylmethyl)-6,7,8,9-tetrahydro[1,2,4]triazolo[4,3-A]quinoxaline-4(5H)-one]?
**A.** concentration at 5 h (male, whole blood (dried blood spot), 5 h, dried blood spot, read-out: Concentration, Mean): 2170 nM; concentration at 5 h (male, whole blood (dried blood spot), 5 h, dried blood spot, read-out: Concentration, individual animals): 2680 nM; concentration at 6 h (male, whole blood (dried blood spot), 6 h, FU 0.053, read-out: Unbound Concentration, Mean): 93.5 nM; concentration at 6 h (male, whole blood (dried blood spot), 6 h, FU 0.053, read-out: Unbound Concentration, individual animals): 98.1 nM; concentration at 6 h (male, whole blood (dried blood spot), 6 h, dried blood spot, read-out: Concentration, Mean): 1760 nM; concentration at 6 h (male, whole blood (dried blood spot), 6 h, dried blood spot, read-out: Concentration, individual animals): 1850 nM; concentration at 24 h (male, whole blood (dried blood spot), FU 0.053, read-out: Unbound Concentration, Mean): 5 nM; concentration at 24 h (male, whole blood (dried blood spot), dried blood spot, read-out: Concentration, Mean): 94.2 nM; half-life (male, whole blood (dried blood spot), after oral administration, Sprague Dawley rats): ~4 h; concentration at 4 h (oral 0.03 mg/kg, 5 h, FU 0.053, 0.03 mg/kg, read-out: Unbound Concentration, individual animals): 1.35 nM and 1.39 nM (2×) and 1.51 nM; concentration at 4 h (oral 0.03 mg/kg, 5 h, dried blood spot, 0.03 mg/kg, read-out: Concentration, individual animals): 25.4 nM and 26.3 nM and 28.4 nM and 26.2 nM; concentration at 4 h (oral 0.03 mg/kg, 6 h, FU 0.053, 0.03 mg/kg, read-out: Unbound Concentration, individual animals): 1.93 nM and 0.917 nM and 0.906 nM and 0.938 nM and 1.13 nM; concentration at 4 h (oral 0.03 mg/kg, 6 h, dried blood spot, 0.03 mg/kg, read-out: Concentration, individual animals): 36.4 nM and 17.3 nM and 17.1 nM and 17.7 nM and 21.4 nM; Unbound Concentration, individual animals (oral 0.03 mg/kg, FU 0.053): BQL; Concentration, individual animals (oral 0.03 mg/kg, dried blood spot): BQL; concentration at 4 h (oral 0.1 mg/kg, 1 h, FU 0.053, 0.1 mg/kg, read-out: Unbound Concentration, individual animals): 12.1 nM and 9.12 nM and 9.54 nM and 9.28 nM; concentration at 4 h (oral 0.1 mg/kg, 1 h, dried blood spot, 0.1 mg/kg, read-out: Concentration, individual animals): 229 nM and 172 nM and 180 nM and 175 nM; concentration at 4 h (oral 0.1 mg/kg, 2 h, FU 0.053, 0.1 mg/kg, read-out: Unbound Concentration, individual animals): 10.2 nM and 10.1 nM and 8.9 nM and 9.22 nM; concentration at 4 h (oral 0.1 mg/kg, 2 h, dried blood spot, 0.1 mg/kg, read-out: Concentration, individual animals): 193 nM and 190 nM and 168 nM and 174 nM; concentration at 4 h (oral 0.1 mg/kg, 3 h, FU 0.053, 0.1 mg/kg, read-out: Unbound Concentration, individual animals): 8.96 nM and 9.91 nM and 7.63 nM and 9.49 nM; concentration at 4 h (oral 0.1 mg/kg, 3 h, dried blood spot, 0.1 mg/kg, read-out: Concentration, individual animals): 169 nM and 187 nM and 144 nM and 179 nM; concentration at 4 h (oral 0.1 mg/kg, 4 h, FU 0.053, 0.1 mg/kg, read-out: Unbound Concentration, individual animals): 7.05 nM and 7.21 nM and 4.67 nM and 7.74 nM; concentration at 4 h (oral 0.1 mg/kg, 4 h, dried blood spot, 0.1 mg/kg, read-out: Concentration, individual animals): 133 nM and 136 nM and 88.1 nM and 146 nM; concentration at 4 h (oral 0.1 mg/kg, 5 h, FU 0.053, 0.1 mg/kg, read-out: Unbound Concentration, individual animals): 5.35 nM and 4.7 nM and 3.91 nM and 5.72 nM; concentration at 4 h (oral 0.1 mg/kg, 5 h, dried blood spot, 0.1 mg/kg, read-out: Concentration, individual animals): 101 nM and 88.7 nM and 73.7 nM and 108 nM; concentration at 4 h (oral 0.1 mg/kg, 6 h, FU 0.053, 0.1 mg/kg, read-out: Unbound Concentration, individual animals): 5.83 nM and 4.21 nM and 3.48 nM and 4.92 nM; concentration at 4 h (oral 0.1 mg/kg, 6 h, dried blood spot, 0.1 mg/kg, read-out: Concentration, individual animals): 110 nM and 79.5 nM and 65.7 nM and 92.8 nM; Unbound Concentration, individual animals (oral 0.1 mg/kg, FU 0.053, 0.1 mg/kg): BQL; Concentration, individual animals (oral 0.1 mg/kg, dried blood spot, 0.1 mg/kg): BQL; concentration at 4 h (oral 0.3 mg/kg, 1 h, FU 0.053, 0.3 mg/kg, read-out: Unbound Concentration, individual animals): 19.2 nM and 31.4 nM and 33.8 nM and 30 nM; concentration at 4 h (oral 0.3 mg/kg, 1 h, dried blood spot, 0.3 mg/kg, read-out: Concentration, individual animals): 362 nM and 593 nM and 638 nM and 566 nM; concentration at 4 h (oral 0.3 mg/kg, 2 h, FU 0.053, 0.3 mg/kg, read-out: Unbound Concentration, individual animals): 25.4 nM and 27.8 nM and 21 nM and 25 nM; concentration at 4 h (oral 0.3 mg/kg, 2 h, dried blood spot, 0.3 mg/kg, read-out: Concentration, individual animals): 479 nM and 525 nM and 397 nM and 472 nM; concentration at 4 h (oral 0.3 mg/kg, 3 h, FU 0.053, 0.3 mg/kg, read-out: Unbound Concentration, individual animals): 14.8 nM and 17.4 nM and 17.1 nM and 19.2 nM; concentration at 4 h (oral 0.3 mg/kg, 3 h, dried blood spot, 0.3 mg/kg, read-out: Concentration, individual animals): 280 nM and 328 nM and 323 nM and 363 nM; concentration at 4 h (oral 0.3 mg/kg, 4 h, FU 0.053, 0.3 mg/kg, read-out: Unbound Concentration, individual animals): 12.1 nM (2×) and 11.3 nM and 11.1 nM; concentration at 4 h (oral 0.3 mg/kg, 4 h, dried blood spot, 0.3 mg/kg, read-out: Concentration, individual animals): 229 nM (2×) and 213 nM and 210 nM; concentration at 4 h (oral 0.3 mg/kg, 5 h, FU 0.053, 0.3 mg/kg, read-out: Unbound Concentration, individual animals): 8 nM; Unbound Concentration, individual animals (oral 0.3 mg/kg, FU 0.053): BQL; Concentration, individual animals (oral 0.3 mg/kg, dried blood spot): BQL
